# Target: Platelet-activating factor receptor (Homo sapiens, UniProt P25105); further: in other assays of this panel Not Active means under 50% inhibition at 10 µM
# Experiment: not given
# Assay type: tissue-based
# Details: not given
# Chain of Platelet-activating factor receptor (P25105 whole entry): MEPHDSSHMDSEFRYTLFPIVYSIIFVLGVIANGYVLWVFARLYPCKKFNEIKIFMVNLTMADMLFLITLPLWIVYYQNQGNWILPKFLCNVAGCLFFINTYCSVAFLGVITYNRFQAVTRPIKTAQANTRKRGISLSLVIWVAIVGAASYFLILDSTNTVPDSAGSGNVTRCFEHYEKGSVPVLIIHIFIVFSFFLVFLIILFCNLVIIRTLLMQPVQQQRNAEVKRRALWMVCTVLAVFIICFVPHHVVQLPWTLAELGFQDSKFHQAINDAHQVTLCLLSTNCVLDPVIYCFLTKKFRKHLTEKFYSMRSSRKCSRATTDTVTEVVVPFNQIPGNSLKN
row,Structure (SMILES),IC50
1,CCCCOc1ccc(OCCCN2CCOCC2)cc1 [PRAMOXINE],Not Active
2,O=C(C1CCCCC1)N1CC(=O)N2CCc3ccccc3C2C1 (stereo unspecified) [PRAZIQUANTEL],Not Active
3,CCN(CC)CCOC(=O)c1ccc(N)cc1 [PROCAINE],Not Active
4,CCCN(CCC)C(=O)C(CCC(=O)O)NC(=O)c1ccccc1 (stereo unspecified) [PROGLUMIDE],Not Active
5,NC(=O)c1cnccn1 [PYRAZINAMIDE],Not Active
6,OC(CCN1CCCCC1)(c1ccccc1)C1CCCCC1 (stereo unspecified) [TRIHEXYPHENIDYL],Not Active

# Target: T1, Type-2 angiotensin II receptor (Homo sapiens, UniProt P50052); further: in other assays of this panel Not Active means under 50% inhibition at 10 µM
# T1 sequence (P50052 whole entry): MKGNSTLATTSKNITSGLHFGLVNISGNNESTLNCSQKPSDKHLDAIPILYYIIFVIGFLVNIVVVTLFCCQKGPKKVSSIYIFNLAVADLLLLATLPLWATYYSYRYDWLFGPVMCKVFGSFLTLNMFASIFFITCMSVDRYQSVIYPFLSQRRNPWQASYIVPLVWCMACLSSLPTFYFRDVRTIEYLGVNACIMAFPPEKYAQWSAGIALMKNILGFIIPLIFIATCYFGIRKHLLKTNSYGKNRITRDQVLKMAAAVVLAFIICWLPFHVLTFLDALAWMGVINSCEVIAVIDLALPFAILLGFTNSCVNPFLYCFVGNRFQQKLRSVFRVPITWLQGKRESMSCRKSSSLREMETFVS
# Experiment: not given
# Assay type: cell-based
# Details: cho-k1
row,Structure (SMILES),IC50
1,CCCCOc1ccc(OCCCN2CCOCC2)cc1 [PRAMOXINE],Not Active
2,O=C(C1CCCCC1)N1CC(=O)N2CCc3ccccc3C2C1 (stereo unspecified) [PRAZIQUANTEL],Not Active
3,CCN(CC)CCOC(=O)c1ccc(N)cc1 [PROCAINE],Not Active
4,CCCN(CCC)C(=O)C(CCC(=O)O)NC(=O)c1ccccc1 (stereo unspecified) [PROGLUMIDE],Not Active
5,NC(=O)c1cnccn1 [PYRAZINAMIDE],Not Active
6,OC(CCN1CCCCC1)(c1ccccc1)C1CCCCC1 (stereo unspecified) [TRIHEXYPHENIDYL],Not Active

# Target: T2, C-C chemokine receptor type 4 (Homo sapiens, UniProt P51679); further: in other assays of this panel Not Active means under 50% inhibition at 10 µM
# T2 sequence (P51679 whole entry): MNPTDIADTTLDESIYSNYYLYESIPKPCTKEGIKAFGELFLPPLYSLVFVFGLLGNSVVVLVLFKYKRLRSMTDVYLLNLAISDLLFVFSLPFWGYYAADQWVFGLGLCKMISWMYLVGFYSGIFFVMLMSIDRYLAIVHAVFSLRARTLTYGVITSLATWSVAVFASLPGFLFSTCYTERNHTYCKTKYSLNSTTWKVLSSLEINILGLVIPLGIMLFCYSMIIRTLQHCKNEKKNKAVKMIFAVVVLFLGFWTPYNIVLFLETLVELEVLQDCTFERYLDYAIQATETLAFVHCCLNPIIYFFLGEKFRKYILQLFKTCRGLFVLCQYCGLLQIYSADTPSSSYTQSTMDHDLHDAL
# Experiment: not given
# Assay type: cell membranes, Membrane
# Details: chem-1
row,Structure (SMILES),IC50
1,CCCCOc1ccc(OCCCN2CCOCC2)cc1 [PRAMOXINE],Not Active
2,O=C(C1CCCCC1)N1CC(=O)N2CCc3ccccc3C2C1 (stereo unspecified) [PRAZIQUANTEL],Not Active
3,CCN(CC)CCOC(=O)c1ccc(N)cc1 [PROCAINE],Not Active
4,CCCN(CCC)C(=O)C(CCC(=O)O)NC(=O)c1ccccc1 (stereo unspecified) [PROGLUMIDE],Not Active
5,NC(=O)c1cnccn1 [PYRAZINAMIDE],Not Active
6,OC(CCN1CCCCC1)(c1ccccc1)C1CCCCC1 (stereo unspecified) [TRIHEXYPHENIDYL],Not Active

# Target: Mitogen-activated protein kinase 3 (Homo sapiens, UniProt P27361)
# Sequence (P27361 whole entry): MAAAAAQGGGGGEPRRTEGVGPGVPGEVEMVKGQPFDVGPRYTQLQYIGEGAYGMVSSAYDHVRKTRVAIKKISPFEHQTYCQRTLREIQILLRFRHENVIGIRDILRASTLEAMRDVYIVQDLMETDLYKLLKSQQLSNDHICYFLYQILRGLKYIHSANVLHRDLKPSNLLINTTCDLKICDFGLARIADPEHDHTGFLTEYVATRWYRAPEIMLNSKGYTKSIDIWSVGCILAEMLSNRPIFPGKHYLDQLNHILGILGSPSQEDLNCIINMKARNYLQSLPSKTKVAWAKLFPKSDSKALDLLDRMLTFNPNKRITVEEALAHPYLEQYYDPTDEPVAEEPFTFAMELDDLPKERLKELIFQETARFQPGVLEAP
# Experiment: DRUGMATRIX: Protein Serine/Threonine Kinase, ERK1 enzyme inhibition (substrate: Myelin Basic Protein)
# Set-up: species or system Escherichia coli
# Details: Not Active = under 50% inhibition at 10 µM
row,Structure (SMILES),IC50
1,CCCCOc1ccc(OCCCN2CCOCC2)cc1 [PRAMOXINE],Not Active
2,O=C(C1CCCCC1)N1CC(=O)N2CCc3ccccc3C2C1 (stereo unspecified) [PRAZIQUANTEL],Not Active
3,CCN(CC)CCOC(=O)c1ccc(N)cc1 [PROCAINE],Not Active
4,CCCN(CCC)C(=O)C(CCC(=O)O)NC(=O)c1ccccc1 (stereo unspecified) [PROGLUMIDE],Not Active
5,NC(=O)c1cnccn1 [PYRAZINAMIDE],Not Active
6,OC(CCN1CCCCC1)(c1ccccc1)C1CCCCC1 (stereo unspecified) [TRIHEXYPHENIDYL],Not Active

# Target: T3, Angiotensin-converting enzyme (Oryctolagus cuniculus, UniProt P12822);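 further: enzymatic inhibition of angiotensin-converting enzyme measured with FAPGG as the substrate; in other assays of this panel Not Active means under 50% inhibition at 10 µM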
# T3 sequence (P12822 whole entry): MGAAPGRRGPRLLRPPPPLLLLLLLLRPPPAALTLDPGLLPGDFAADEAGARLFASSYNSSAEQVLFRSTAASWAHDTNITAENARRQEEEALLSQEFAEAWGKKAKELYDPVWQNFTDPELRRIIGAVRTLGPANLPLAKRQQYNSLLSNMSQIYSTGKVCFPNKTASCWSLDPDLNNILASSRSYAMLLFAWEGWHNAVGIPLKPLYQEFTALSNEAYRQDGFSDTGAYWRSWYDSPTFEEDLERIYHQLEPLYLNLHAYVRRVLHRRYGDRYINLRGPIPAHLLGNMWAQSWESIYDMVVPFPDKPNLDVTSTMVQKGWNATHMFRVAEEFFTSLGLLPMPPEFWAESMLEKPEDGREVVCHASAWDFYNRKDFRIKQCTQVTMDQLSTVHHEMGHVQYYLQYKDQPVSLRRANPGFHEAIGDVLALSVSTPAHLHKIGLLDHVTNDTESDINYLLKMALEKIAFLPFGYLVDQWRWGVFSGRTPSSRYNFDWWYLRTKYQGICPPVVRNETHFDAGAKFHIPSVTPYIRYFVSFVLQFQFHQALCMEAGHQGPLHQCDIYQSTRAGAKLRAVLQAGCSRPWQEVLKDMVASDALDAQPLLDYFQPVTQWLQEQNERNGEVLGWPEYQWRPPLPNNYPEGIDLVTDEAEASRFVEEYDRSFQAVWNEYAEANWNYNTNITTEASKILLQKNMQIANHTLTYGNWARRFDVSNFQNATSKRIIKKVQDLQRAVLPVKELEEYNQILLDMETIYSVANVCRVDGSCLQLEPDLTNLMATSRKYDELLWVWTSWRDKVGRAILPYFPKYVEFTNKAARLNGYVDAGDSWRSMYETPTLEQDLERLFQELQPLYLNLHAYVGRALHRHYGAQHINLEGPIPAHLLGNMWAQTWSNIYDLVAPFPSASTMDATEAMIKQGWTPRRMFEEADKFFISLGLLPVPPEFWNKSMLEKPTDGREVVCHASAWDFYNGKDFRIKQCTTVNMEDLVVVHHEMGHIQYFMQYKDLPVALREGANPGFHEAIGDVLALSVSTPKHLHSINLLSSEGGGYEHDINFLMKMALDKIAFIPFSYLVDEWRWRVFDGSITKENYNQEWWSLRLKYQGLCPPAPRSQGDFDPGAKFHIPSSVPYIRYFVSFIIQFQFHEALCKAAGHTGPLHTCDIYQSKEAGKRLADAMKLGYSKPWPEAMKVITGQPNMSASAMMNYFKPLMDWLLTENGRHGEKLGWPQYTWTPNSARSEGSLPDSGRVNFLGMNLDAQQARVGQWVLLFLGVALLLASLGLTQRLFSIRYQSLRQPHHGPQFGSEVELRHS
# Experiment: not given
# Assay type: tissue-based, Lung
# Details: not given
row,Structure (SMILES),IC50
1,CCCCOc1ccc(OCCCN2CCOCC2)cc1 [PRAMOXINE],Not Active
2,O=C(C1CCCCC1)N1CC(=O)N2CCc3ccccc3C2C1 (stereo unspecified) [PRAZIQUANTEL],Not Active
3,CCN(CC)CCOC(=O)c1ccc(N)cc1 [PROCAINE],Not Active
4,CCCN(CCC)C(=O)C(CCC(=O)O)NC(=O)c1ccccc1 (stereo unspecified) [PROGLUMIDE],Not Active
5,NC(=O)c1cnccn1 [PYRAZINAMIDE],Not Active
6,OC(CCN1CCCCC1)(c1ccccc1)C1CCCCC1 (stereo unspecified) [TRIHEXYPHENIDYL],Not Active

# Target: T4, B2 bradykinin receptor (Homo sapiens, UniProt P30411); further: in other assays of this panel Not Active means under 50% inhibition at 10 µM
# T4 sequence (P30411 whole entry): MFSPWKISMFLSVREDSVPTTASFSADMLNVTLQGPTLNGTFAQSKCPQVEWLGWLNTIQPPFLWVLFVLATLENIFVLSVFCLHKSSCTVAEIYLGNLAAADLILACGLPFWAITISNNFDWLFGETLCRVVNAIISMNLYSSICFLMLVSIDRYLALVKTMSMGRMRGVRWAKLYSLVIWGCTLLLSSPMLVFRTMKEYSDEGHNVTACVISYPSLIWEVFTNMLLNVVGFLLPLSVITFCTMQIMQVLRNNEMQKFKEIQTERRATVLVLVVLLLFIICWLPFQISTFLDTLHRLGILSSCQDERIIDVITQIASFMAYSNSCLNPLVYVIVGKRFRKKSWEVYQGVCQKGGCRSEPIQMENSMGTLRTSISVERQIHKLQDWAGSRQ
# Experiment: not given
# Assay type: cell membranes, Membrane
# Details: chem-1
row,Structure (SMILES),IC50
1,CCCCOc1ccc(OCCCN2CCOCC2)cc1 [PRAMOXINE],Not Active
2,O=C(C1CCCCC1)N1CC(=O)N2CCc3ccccc3C2C1 (stereo unspecified) [PRAZIQUANTEL],Not Active
3,CCN(CC)CCOC(=O)c1ccc(N)cc1 [PROCAINE],Not Active
4,CCCN(CCC)C(=O)C(CCC(=O)O)NC(=O)c1ccccc1 (stereo unspecified) [PROGLUMIDE],Not Active
5,NC(=O)c1cnccn1 [PYRAZINAMIDE],Not Active
6,OC(CCN1CCCCC1)(c1ccccc1)C1CCCCC1 (stereo unspecified) [TRIHEXYPHENIDYL],Not Active

# Target: Aldo-keto reductase family 1 member B1 (Rattus norvegicus, UniProt P07943)
# Experiment: biochemical
# Assay type: tissue-based, Lens of camera-type eye
# Details: not given
row,Structure (SMILES),IC50
1,CCCCOc1ccc(OCCCN2CCOCC2)cc1 [PRAMOXINE],Not Active
2,O=C(C1CCCCC1)N1CC(=O)N2CCc3ccccc3C2C1 (stereo unspecified) [PRAZIQUANTEL],Not Active
3,CCN(CC)CCOC(=O)c1ccc(N)cc1 [PROCAINE],Not Active
4,CCCN(CCC)C(=O)C(CCC(=O)O)NC(=O)c1ccccc1 (stereo unspecified) [PROGLUMIDE],Not Active
5,NC(=O)c1cnccn1 [PYRAZINAMIDE],Not Active
6,OC(CCN1CCCCC1)(c1ccccc1)C1CCCCC1 (stereo unspecified) [TRIHEXYPHENIDYL],Not Active

# Test system: not listed separately
# Experiment: DRUGMATRIX: Leukotriene, BLT (LTB4) radioligand binding (ligand: [3H]LTB4)
# Assay type: cell membranes, Membrane
# Details: u-937; Not Active = under 50% inhibition at 10 µM
Structure (SMILES),IC50,Ki
CCCCOc1ccc(OCCCN2CCOCC2)cc1 [PRAMOXINE],Not Active,Not Active
O=C(C1CCCCC1)N1CC(=O)N2CCc3ccccc3C2C1 (stereo unspecified) [PRAZIQUANTEL],Not Active,Not Active
CCN(CC)CCOC(=O)c1ccc(N)cc1 [PROCAINE],Not Active,Not Active
CCCN(CCC)C(=O)C(CCC(=O)O)NC(=O)c1ccccc1 (stereo unspecified) [PROGLUMIDE],Not Active,Not Active
NC(=O)c1cnccn1 [PYRAZINAMIDE],Not Active,Not Active
OC(CCN1CCCCC1)(c1ccccc1)C1CCCCC1 (stereo unspecified) [TRIHEXYPHENIDYL],Not Active,Not Active

# Test system: not listed separately
# Experiment: DRUGMATRIX: Sodium/nucleoside co-transporter radioligand binding (ligand: nitrobenzylthioinosine)
# Assay type: cell membranes, Cavia porcellus, Dunkin-Hartley, Cerebral cortex, Membrane
# Details: Not Active = under 50% inhibition at 10 µM
Structure (SMILES),IC50,Ki
CCCCOc1ccc(OCCCN2CCOCC2)cc1 [PRAMOXINE],Not Active,Not Active
O=C(C1CCCCC1)N1CC(=O)N2CCc3ccccc3C2C1 (stereo unspecified) [PRAZIQUANTEL],Not Active,Not Active
CCN(CC)CCOC(=O)c1ccc(N)cc1 [PROCAINE],Not Active,Not Active
CCCN(CCC)C(=O)C(CCC(=O)O)NC(=O)c1ccccc1 (stereo unspecified) [PROGLUMIDE],Not Active,Not Active
NC(=O)c1cnccn1 [PYRAZINAMIDE],Not Active,Not Active
OC(CCN1CCCCC1)(c1ccccc1)C1CCCCC1 (stereo unspecified) [TRIHEXYPHENIDYL],Not Active,Not Active

# From ChEMBL document CHEMBL1909046, “DrugMatrix in vitro pharmacology data”
